# Experimental data as given in BindingDB's records for patent US20230382911 (Hoffmann-La Roche, 2023).
# Target: S-adenosylmethionine synthase isoform type-2 (Homo sapiens, UniProt P31153)
# Assay: Measurement of Mat2A inhibition is performed in 384 well format absorbance-based assay
# Description: Recombinant human Mat2a (12.5 nM) and serial diluted compounds in DMSO (range of concentrations from 10 μM to […]) or controls (DMSO) are incubated for 15 minutes at room temperature (RT) in assay buffer containing 50 mM HEPES pH 7.5, 50 mM KCl, 50 mM MgCl2, 0.01% Tween 20 and 10 mM DTT. The reaction is initiated by the addition of the combined substrates ATP and Methionine, each at a final concentration of 100 μM. Final assay condition are 12.5 nM Mat2A, 100 μM ATP and Methionine Substrates and 2% DMSO. After 120 minutes of incubation at RT, the reaction is stopped by the addition of Biomol Green. The absorbance signal is measured at λ=635 nm with a multiplate reader (BMG Pherastar reader or equivalent) after 30 min of equilibration at RT.
# Chain of S-adenosylmethionine synthase isoform type-2 (P31153 whole entry, canonical isoform): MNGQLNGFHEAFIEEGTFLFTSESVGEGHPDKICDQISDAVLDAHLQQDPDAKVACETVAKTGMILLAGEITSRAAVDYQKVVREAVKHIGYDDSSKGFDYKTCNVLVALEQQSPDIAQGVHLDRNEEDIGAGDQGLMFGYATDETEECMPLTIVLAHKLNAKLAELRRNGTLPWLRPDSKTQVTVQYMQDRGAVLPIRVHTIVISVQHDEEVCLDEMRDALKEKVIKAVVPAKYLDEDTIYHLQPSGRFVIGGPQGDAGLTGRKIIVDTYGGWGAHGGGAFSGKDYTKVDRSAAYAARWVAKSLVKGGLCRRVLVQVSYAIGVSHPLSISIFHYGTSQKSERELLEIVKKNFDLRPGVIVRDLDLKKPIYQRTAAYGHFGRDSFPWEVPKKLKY
row,IC50 [µM],Structure (SMILES)
1,0.066,"COc1ccccc1C(=O)n1nc(N)c2cc(F)c(N3CCCC3)nc21 [US20230382911, Example 11]"
2,0.035,"Cc1ccccc1C(=O)n1nc(N)c2ccc([C@H]3[C@H](C)[C@@H]3C)nc21 [US20230382911, Example 43]"
3,0.013,"COc1ccccc1C(=O)n1nc(N)c2ccc([C@H]3[C@H](C)[C@@H]3C)nc21 [US20230382911, Example 44]"
